According to US20070043108A1, “Use of equol for ameliorating or preventing neuropsychiatric and neurodegenerative diseases or disorders” (priority 2002, published 2007):
Values joined by “and” are separate entries in the source; they are usually repeats but may differ in a detail not shown here. Equal entries are not always repeated.

What was measured:
ERα = target: T1, ERα (Rattus norvegicus, UniProt P06211); assay: Competition binding of equol enantiomers with [3H]E2 for in vitro translated ERα
T1 construct: Full length rat ERα expression vector (pcDNA-ERα; RH Price UCSF); made in house; host or cells: TnT-coupled rabbit reticulocyte lysate in vitro translation (Promega)
T1 sequence (P06211 1-600): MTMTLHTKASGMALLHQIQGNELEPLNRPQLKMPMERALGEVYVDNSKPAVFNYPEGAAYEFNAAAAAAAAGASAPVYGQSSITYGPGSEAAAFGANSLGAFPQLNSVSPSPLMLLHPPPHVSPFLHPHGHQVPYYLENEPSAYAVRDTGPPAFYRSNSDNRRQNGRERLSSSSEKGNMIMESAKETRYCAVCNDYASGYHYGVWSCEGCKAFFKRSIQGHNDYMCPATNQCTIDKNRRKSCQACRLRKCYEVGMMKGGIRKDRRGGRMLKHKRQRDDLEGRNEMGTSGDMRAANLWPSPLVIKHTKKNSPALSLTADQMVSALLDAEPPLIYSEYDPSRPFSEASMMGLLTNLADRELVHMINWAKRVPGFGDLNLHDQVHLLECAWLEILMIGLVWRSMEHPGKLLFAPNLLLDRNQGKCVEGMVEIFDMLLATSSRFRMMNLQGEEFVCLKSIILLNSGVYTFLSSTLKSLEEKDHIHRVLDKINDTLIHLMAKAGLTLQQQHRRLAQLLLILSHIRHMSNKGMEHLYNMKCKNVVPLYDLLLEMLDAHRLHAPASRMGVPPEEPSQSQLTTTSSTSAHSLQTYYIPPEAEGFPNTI
Procedure: In vitro binding studies were performed to examine the relative affinities of S— and R-enantiomeric equol with the estrogen receptors ERα and ERβ.
Synthesis of Hormone Receptor Proteins: Full length rat ERα expression vector (pcDNA-ERα; RH Price UCSF) and ERβ expression vector (pcDNA-ERβ; T A Brown, Pfizer, Groton, […].) were used to synthesize hormone receptors in vitro using the TnT-coupled reticulocyte lysate system (Promega, Madison, Wis.) with T7-RNA polymerase, during a 90 min reaction at 30° C. Translation reaction mixtures were stored at −80° C. until further use.
Saturation isotherms: In order to calculate and establish the binding affinity of the S-equol and R-equol enantiomers for ERα and ERβ, 100 μL aliquots of reticulocyte lysate supernatant were incubated at optimal time and temperature; 90 min at room temperature (ERβ) and 18 hrs at 4° C. (ERα), with increasing (0.01-100 nm) concentrations of [3H] […] These times were determined empirically and represent optimal binding of receptor with estrogen. Nonspecific binding was assessed using a 300-fold excess of the ER agonist diethylstilbestrol, in parallel tubes. Following incubation, bound and unbound [3H]E2 were separated by passing the incubation reaction through a 1 mL lipophilic Sephadex LH-20 (Sigma-Aldrich Co., Saint Louis, Mo.) column Columns were constructed by packing a disposable pipette tip (1 mL; Labcraft, Curtin Matheson Scientific, Inc, Houston, Tex.) with TEGMD (10 mm Tris-Cl, 1.5 mm EDTA, 10% glycerol, 25 mm molybdate, and 1 mm dithiothreitol, pH 7.4)-saturated Sephadex according to previously published protocols (Wanda et al., 1986; O'Keefe and Handa, 1990). For chromatography, the columns were re-equilibrated with TEGMD (100 μL), and the incubation reactions were added individually to each column and allowed to incubate on the column for an additional 30 min. Following this incubation, 600 μL of TEGMD were added to each column, flow-through was collected, 4 mL scintillation fluid was added, and samples were counted (5 min each) in an 2900 TR Packard scintillation counter (Packard Bioscience, Meriden, Conn.).
Competition binding studies were used to assess the estrogenic properties of equol's S-equol and R-equol enantiomers. Based on the ability of S and R to compete with [3H]

[1] = Competition and binding studies of equol with other labelled steroids
[2] = test system: Long-Evans rats, male offspring; assay: Example 19: elevated plus maze of adult male offspring after pre- and early postnatal treatment; type: in vivo, rat; conditions: offspring tested at about 90 days
Procedure: Pregnant Long-Evans rats were treated via daily subcutaneous injections from gestational day 14 through 20 and during lactation from postnatal day 2 through 25 with: 1) control-DMSO vehicle or, 2) genistein@ 3 mg/day or 3) equol@ 3 mg/day according to the treatment groups. All animals were fed a phytoestrogen-low diet throughout these studies (10 ppm isoflavones). There were no significant differences in maternal body weights just before birth among the treatment groups. […] The maternal and male offspring genistein and equol levels @ 25 days post birth) paralleled that of the treatments administered.
At approximately 90 days of age the male offspring were tested by treatments (control, genistein and equol) in the EPM that was video-taped for 3 minutes and later recorded for the number of entries into—and the percentage of total time spent—on the open arms, as previously described. […] Equol time intervals were 2-fold greater than genistein values and genistein levels were approximately 9-fold greater than controls.

GDX males = assay: Examples 5 and 6: gonadectomized (GDX) male rats treated with DHTP, equol or both; histology; type: in vivo, rat
Male Long-Evans rats = assay: Example 13: racemic equol injections in male rats on Phyto-Free diet; type: in vivo, rat
From the text: Prior to initiation of a Phyto-Free diet period Male Long-Evans rats are fed a Phyto-200 diet, as described in previous examples. The rats are placed on a diet containing the Phyto-Free diet at approximately 52 days of age and randomly assigned to three groups. Baseline body weights after 14 days and 21 days on the Phyto-Free diet for all rats are similar, shown in FIGS. 43 and 44, respectively. Beginning at 73 days of age, rats receive daily subcutaneous 0.1 cc injections of vehicle (peanut oil), 1 milligram of a racemic mixture of equol in vehicle (0.83 mg/kg body weight/day), or 5 milligrams of a racemic mixture of equol in vehicle (4.2 mg/kg body weight/day) once every three days.

SMILES	relative binding affinity for ERα compared with 17β-estradiol, fold less (ERα)	Kd (ERα; competition with [3H]E2, in vitro translated ER)	binding to [3H]E2, [3H]T, [3H]DHEA, [3H]CORT and [3H]progesterone [1]	entries into the open arms vs controls ([2]; 3 mg/day sc to dams)	time in the open arms vs controls ([2]; 3 mg/day sc to dams)	open arm time intervals, fold greater than genistein values [2]	epididymal histology (H&E) (GDX males; intact males vs control males)	prostate histology (H&E) (GDX males; intact males vs intact control)	reduction in adipose tissue mass (Male Long-Evans rats; 101-day-old rats, vs controls)	testes weight (Male Long-Evans rats; 28 days after start of injections)	body weights and average body weight gains (Male Long-Evans rats; at 80 and 88 days of age, 1 or 5 mg racemic equol sc, vs controls)	average body weight gains (Male Long-Evans rats; at 95 and 101 days, vs control)
Oc1ccc([C@@H]2COc3cc(O)ccc3C2)cc1 [R-equol]	210.6 fold and 211 fold	27.4 ± 3.8 nM	–	–	–	–	–	–	–	–	–	–
Oc1ccc(C2COc3cc(O)ccc3C2)cc1 (racemic) [equol, 7-hydroxy-3(4′hydroxyphenyl)-chroman]	–	–	without any occurrences of binding	significantly greater	significantly greater	2 fold	overall smaller ducts	involution and consist of more closely spaced, atrophic glands	approximately 33%	no significant alterations	not significantly different from controls	significantly reduced
